{"source": "patent US4520026A", "about": "“Indolizine derivatives and use as cardiovascular agents” (S. A. Labaz N.V., priority 1982, dated 1985)", "key": {"[1]": {"test": "Acute toxicity by intravenous route to mice", "settings": "mouse, in vivo, oxalate acid form except those marked (hydrochloride)", "method": "(§1) Acute toxicity tests were carried out on rats and mice. The following results were registered in comparison with butoprozine. The compounds of the invention were used in oxalate acid form except those marked (x) which were tested in hydrochloride form."}, "[2]": {"test": "Acute toxicity by intravenous route to rats", "type": "in vivo", "settings": "rat, in vivo, oxalate acid form except those marked (hydrochloride)", "method": "as §1"}, "[3]": {"test": "Acute toxicity by intragastric route to mice", "type": "in vivo", "settings": "mouse, in vivo, po, oxalate acid form except those marked (hydrochloride)", "method": "as §1"}, "mice": {"test_system": "mice", "test": "Acute toxicity by intragastric route to mice", "type": "in vivo", "settings": "hydrochloride form (marked)", "method": "as §1"}, "[4]": {"test": "Blood level after oral dose in the dog", "type": "in vivo", "settings": "same oral dose"}, "[5]": {"test_system": "epinephrine-increased blood-pressure (anti-α effect)", "test": "Antiadrenergic effect: anti-α effect (reduction of epinephrine-increased blood-pressure)", "type": "in vivo", "settings": "dog", "procedure,_shortened": "(§2)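 Pentobarbital-anaesthetized, atropinized dogs given an epinephrine dose (5–10 μg/kg) raising arterial pressure about 100 mm Hg, then test compound i.v. Reduction of the pressor response (anti-α) and of the ~70-beat tachycardia (anti-β) scored: + <50%, ++ ≥50%, +++ subtotal.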"}, "[6]": {"test_system": "epinephrine-accelerated heart rate (anti-β effect)", "test": "Antiadrenergic effect: anti-β effect (reduction of epinephrine-accelerated heart rate)", "type": "in vivo", "settings": "dog; for inhibition in vivo at 5 mg/kg: Canis lupus familiaris, iv, dose 5 mg/kg i.v.", "procedure,_shortened": "as §2"}, "ventricular fibrillation": {"test_system": "ventricular fibrillation", "test": "Anti-arrhythmic properties, LAWSON test (chloroform-provoked arrhythmia), intragastric", "type": "in vivo", "settings": "Mus musculus, po, mice, read-out: AD50 (dose protecting 50% of the animals against ventricular fibrillation)", "method": "The arrhythmia was provoked by making the animals inhale chloroform to total asphyxia and by later observing the ventricular rhythm. The dose of compound protecting 50% of the animals against ventricular fibrillation i.e. the AD50 was then recorded."}, "rats": {"test_system": "rats", "test": "Acute toxicity by intravenous route to rats", "type": "in vivo", "settings": "oxalate acid form except those marked (hydrochloride)", "method": "as §1"}, "dog": {"test_system": "dog", "test": "Cardiac tolerance and general toxicity in long-term toxicity tests, oral, dog", "settings": "in vivo"}, "[7]": {"test_system": "blood-flow to the myocardium", "test": "Effect on blood-flow to the myocardium, anaesthetized dogs, intravenous", "type": "in vivo, dog", "settings": "dose 10 mg/kg i.v., anaesthetized dog", "method": "It was undertaken on anaesthetized dogs which received the substance under study by intravenous route. The intensity of the maximum effect on blood-flow to the myocardium was expressed in percentage of the corresponding value before injection. The time required for the maximum effect to decrease by 50% represented the duration of the effect. This time was measured in minutes."}, "[8]": {"test_system": "consumption of oxygen by the myocardium", "test": "Consumption of oxygen by the myocardium", "settings": "in vivo", "text": "Furthermore, the indolizine derivatives present a β-antiadrenergic effect which is much more powerful than that of the derivatives of the aforesaid U.S. patent. At the minimum dose required to produce bradycardia, a reduction in arterial pressure, α-antiadrenergic and coronarodilatory effects to a significant degree, the β-antiadrenergic effect is, in fact, only slight in the case of the derivatives of the U.S. patent in question whereas it is much stronger with the indolizine derivatives of the invention. Moreover, the compounds of the invention reduce the consumption of oxygen by the myocardium calculated by multiplying the difference between the arterial and venous blood in oxygen by the coronary blood-flow. Thus, the compounds of the invention cause a considerable reduction in the arterio-venous difference which induces a decrease in the consumption of oxygen in spite of the increase of the coronary blood-flow."}}, "data": [{"smiles": "CCCCN(CCCC)CCCOc1ccc(C(=O)c2c(C)c(Br)c3ccccn23)cc1Br.Cl", "note": "[(*)Br/Br/H/CH3/n-C4H9/3, 1-Bromo-2-methyl-3-[4-(3-di-n-butylaminopropyl)-oxy-3-bromo-benzoyl]-indolizine hydrochloride]", "values": [{"measurement": "LD50", "setting": "[1]", "result": 50, "unit": "mg/kg"}, {"measurement": "LD50", "setting": "[2]", "result": 70, "unit": "mg/kg"}, {"measurement": "LD50", "setting": "[3]", "result": "> 5000", "unit": "mg/kg"}, {"measurement": "LD0", "setting": "mice", "result": "> 5000", "unit": "mg/kg"}]}, {"smiles": "CCCCN(CCCC)CCCOc1ccc(C(=O)c2c(C)c(Br)c3ccccn23)cc1Br", "note": "[Br/Br/H/CH3/n-C4H9/3, 1-Bromo-2-methyl-3-[4-(3-di-n-butylaminopropyl)-oxy-3-bromo-benzoyl]-indolizine]", "values": [{"measurement": "Blood level compared with butoprozine", "setting": "[4]", "result": "three times higher"}, {"measurement": "Anti-α effect", "setting": "[5]; dose 5 mg/kg i.v.", "result": "+++"}, {"measurement": "Anti-α effect", "setting": "[5]; dose 10 mg/kg i.v.", "result": "+++"}, {"measurement": "inhibition in vivo at 5 mg/kg", "setting": "[6]", "result": "> 50", "unit": "%"}, {"measurement": "Anti-β effect", "setting": "[6]; dose 10 mg/kg i.v.", "result": "+++"}, {"measurement": "ED50", "setting": "ventricular fibrillation", "result": 180, "unit": "mg/kg"}]}, {"smiles": "CCCCN(CCCC)CCCOc1ccc(C(=O)c2c(-c3ccc(Cl)cc3)c(Br)c3ccccn23)cc1Cl", "note": "[Br/Cl/H/drawing 50/n-C4H9/3]", "values": [{"measurement": "LD50", "setting": "[2]", "result": "> 100", "unit": "mg/kg"}, {"measurement": "LD0", "setting": "rats", "result": "> 100", "unit": "mg/kg"}]}, {"smiles": "CCCCN(CCCC)CCCOc1ccc(C(=O)c2c(CC)cc3ccccn23)cc1", "note": "[Butoprozine, 2-ethyl-3-[4-(3-di-n-butylaminopropyl)-oxy-benzoyl]-indolizine, reference compound]", "values": [{"measurement": "Dose provoking ventricular arrhythmia (as low as)", "setting": "dog", "result": 50, "unit": "mg/kg/day"}, {"measurement": "Lethal dose", "setting": "dog", "result": "50 to 100", "unit": "mg/kg/day"}, {"measurement": "Anti-α effect", "setting": "[5]; dose 5 mg/kg i.v.", "result": "+++"}, {"measurement": "LD50", "setting": "[1]", "result": 25, "unit": "mg/kg"}, {"measurement": "LD50", "setting": "[2]", "result": 22, "unit": "mg/kg"}, {"measurement": "change in vivo at 10 mg/kg", "setting": "[7]; Canis lupus familiaris, iv, read-out: Max. increase (blood-flow to the myocardium)", "result": 120, "unit": "%"}, {"measurement": "Time required to decrease to 50% (duration of effect)", "setting": "[7]", "result": 4, "unit": "min"}, {"measurement": "LD50", "setting": "[3]", "result": 1600, "unit": "mg/kg"}, {"measurement": "inhibition in vivo at 5 mg/kg", "setting": "[6]", "result": "< 50", "unit": "%"}, {"measurement": "ED50", "setting": "ventricular fibrillation", "result": 270, "unit": "mg/kg"}]}, {"smiles": "OCCN(CCO)c1nc(N2CCCCC2)c2nc(N(CCO)CCO)nc(N3CCCCC3)c2n1", "note": "[dipyridamole]", "values": [{"measurement": "Consumption of oxygen by the myocardium", "setting": "[8]", "result": "does not decrease the consumption of oxygen by the myocardium"}]}]}
